Measured values from patent US7141541B1, “Use of peptides” (University Court of the University of Dundee, priority 1999, dated 2006).
Where no end group is shown, it is not given here.

Columns and labels:
recombinant human eIF4E = recombinant human eIF4E (Homo sapiens, UniProt P06730); assay: in vitro binding (pull-down) assay with eIF4E; settings: FIG. 4, FIG. 5
Method: (§1) Sequences of biotinylated, penetratin-linked peptides. U=Norvaline, a substitution for cysteine. Conserved residues that are important in binding to eIF4E are underlined. b). In vitro binding assay. i) 1 μg recombinant eIF4E was incubated with 0.2 mM biotinylated peptides in a total volume of 50 μl wash buffer (1×PBS/250 mM Kcl) for 1 h at 4° C. ii) 0.2 mM Hu4G or Hu4G YLL-AAA was incubated with 200 μg MRC5 cell lysate for 1 h at 4° C. in a total volume of 50 μl wash buffer. In all cases the biotinylated peptides and associated proteins were pulled down using streptavidin agarose. The proteins were separated by SDS PAGE and subjected to Western blotting using anti-eIF4E antibody. Detection was by ECL;
In order to study directly the role of eIF4E in cell transformation, a series of biotinylated synthetic peptides (Peptides synthesised by Cyclacel) corresponding to the eIF4E interacting domain (binding motif) of human eIF4G, and wheat eIF4G and alanine substituted peptides thereof were synthesised (see FIG. 12a) and tested for their capacity to interact with ^35S-Met labelled in vitro translated human eIF4E (NB. Peptides BP1 and BP1 YLM-AAA were not biotinylated). Peptides were coupled to streptavidin coated agarose beads by a N-terminus linked biotin group and washed in PBS/0.2% Tween 3× before being incubated for 1 hour at +4° C. with in vitro translated human eIF4E. Beads were washed as above and boiled for 5 min. in SDS loading buffer before the peptide bound proteins were separated on a 10% SDS gel. The bands were visualised by autoradiography.

MRC5 cells [1] = assay: mitochondrial permeability transition (JC1 dye, confocal microscopy); type: cell-based; settings: 10 μM peptide, serum-starved MRC5 cells
Method: (§2) MRC5 cells were incubated with 10 μM Hu4G peptide for 10 min. Cells visualised with fluorescein by fluorescence microscopy. […] 80% of cells incubated with the 10 μM Hu4G peptide fluoresced positive. d) Images of DAPI-stained MRC5 cells incubated with either 20 μM Hu4G or Hu4G YLL-AAA peptide for 40 min. Arrows indicate the position of a cell with either a condensed nucleus (top right) or a nucleus with a punctate appearance (bottom left). e) Visualisation of effects on the MPT. Serum-starved MRC5 cells were loaded with 0.1 μM JCl for 30 min prior to addition of 10 μM peptide. Changes in mitochondrial permeability were viewed by laser scanning confocal microscopy (krypton/argon laser) using identical setting. Green channel: excitation 488 nm/emission 522 nm. Red channel: excitation 568 nm/emission 585 nm. Channels were collected separately to avoid cross over. Images were taken 5 min after addition of the peptide;
An early event considered decisive in apoptosis is the opening of the mitochondrial permeability transition (MPT) pore (20–22). To characterise further the eIF4E-binding peptide-induced cell death, the development of the MPT was investigated in living MRC5 cells loaded with the fluorescent dye, JC1 (21).

MRC5 cells [2] = assay: DAPI staining of cell nuclei; type: cell-based; settings: 20 μM, 40 min
Method: as §2

HaCaT cells = assay: cytotoxic or cytostatic effect on HaCaT cells; type: cell-based
MRC5 cells [3] = assay: MTT assay with general translation inhibitors (FIG. 16); type: cell-based; settings: serum deprived cells
Method: (§3) FIG. 16 illustrates that eIF4E binding peptide cell death is not through eIF4E's known role in mRNA translation. a) 72 h serum-starved MRC5 cells were treated with 100 μg/ml and 10 μg/ml cylcoheximide, 1 μg/ml and 0.1 μg/ml pactamycine or 10 μM Hu4G peptide for 2 h prior to a MTT assay. Cells were pulsed labelled with [^35S]methionine for 30 min after addition of the inhibitors/peptide. The incorporation of [^35S]methionine into protein was determined following hot trichloroacetic acid precipitation. b) 72 h serum-starved MRC5 cells were treated with 100 μg/ml cycloheximide (Chx), 1 μg/ml pactamycine (Pact) or c) MRC5 cells which had been starved of serum for 72 h were pre-incubated with 100 μg/ml cycloheximide or 1 μg/ml pactamycine for 30 min prior to addition of 10 μM Hu4G peptide. Cells were then further incubated for 1.5 h prior to a MTT assay. Results from three independent experiments (+/− SEM).

MRC5 cells [4] = assay: FACS analysis of propidium iodide-stained cells; type: cell-based; settings: 20 μM, 40 min
[5] = test system: HaCaT, Swiss 3T3, RATI and IIeLa cells; assay: cell survival in other cell-types; type: cell-based; settings: results not shown
[6] = target: T1, eIF4E in MRC5 cell lysate (Homo sapiens, UniProt P06730); assay: pull-down of eIF4E from MRC5 cell lysate; type: binding; settings: 0.2 mM peptide, 200 μg MRC5 cell lysate, 1 h at 4° C.
T1 construct: endogenous in cells; host or cells: MRC5
Method: as §1

MRC5 cells [7] = assay: peptide-induced cell death (apoptosis) in MRC5 cells; type: cell-based
Text: FIG. 8 is a table illustrating the induction of apoptosis by eIF4G peptides in MRC5 cells;
FIG. 9 is a summary of the results of inhibition of eIF4G(413-424)-induced apoptosis;

MRC5 cells [8] = assay: [35S]methionine incorporation into protein; type: cell-based; settings: serum deprived cells, 30 minutes
Method: as §3
Serum deprived cells were treated with the general translation inhibitors Cyclohexamide or Pactamycin at indicated concentrations or the H4G peptide in the presence of 35S-Met for 30 minutes (see FIGS. 16a,b). Cells were lysed and the amount of translation was estimated by counting incorporated 35S-Met in precipitated protein fractions.

MRC5 cells [9] = assay: TUNEL analysis; type: cell-based; settings: 10 μM peptide, 10 min
Method: as §2

MRC5 cells [10] = assay: cell survival by MTT assay; type: cell-based; settings: various concentrations, 72 h serum-starved MRC5 cells, FIGS. 13b,c,d
Method: FIGS. 13a–d are graphs showing cell survival (% of control, untreated cells) as measured by MTT assay. a) Lane 1: 10 μM BP2 peptide added to serum-fed cells or Lane 2, 3, 4: 10 μM BP2 peptide added to 24 h, 48 h or 72 h serum-starved cells respectively. Lane 5: 10 μM BP2 YLL-AAA added to 72 h serum starved cells. Lane 6: 72 h serum starved cells incubated in 10% serum for 1 h prior to addition to 10 μM BP2 peptide. Lane 7: 72 h serum starved cells incubated with 100 μg/ml cycloheximide followed by a 1 h incubation with 10% serum prior to the addition of 10 μM BP2 peptide. In all cases the cells were then further incubated for 1 h in 0.1 mg/ml MTT. Cells were lysed in DMSO and absorbance was measured at […]. b–d) Varying concentrations of peptides were added to 72 h serum starved MRC5 cells. After 30 min incubation the cells were then further incubated for 1 h in 0.1 mg/ml MTT. Cells were lysed in DMSO and absorbance was measured at 570 nm.

T1 sequence (P06730 whole entry): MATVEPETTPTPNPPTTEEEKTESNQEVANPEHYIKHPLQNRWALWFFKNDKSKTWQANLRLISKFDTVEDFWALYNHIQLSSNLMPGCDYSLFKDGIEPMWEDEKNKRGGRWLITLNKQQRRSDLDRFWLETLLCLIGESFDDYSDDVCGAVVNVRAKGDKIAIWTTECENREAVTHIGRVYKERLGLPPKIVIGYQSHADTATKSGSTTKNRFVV
Chain of recombinant human eIF4E (P06730 whole entry): as above

**Q.** What does the source list for “Hu4G: biotinylated, penetratin-linked peptide of the eIF4E binding motif of human eIF4G (KKRYDREFLLGFRQIKIWFQNRRMKWKK; also: biotinylated)”?
**A.** binding to recombinant human eIF4E in vitro (recombinant human eIF4E): found to bind recombinant human eIF4E in vitro; changes in JC1 fluorescence (MPT pore opening) (MRC5 cells [1]): rapid increase; time to increase in green fluorescence with loss of orange fluorescence (MRC5 cells [1]): ≤ 5 min; nuclear condensation (MRC5 cells [2]): signs of nuclear condensation; time until cells began to die after peptide treatment (HaCaT cells; 60 h serum starved cells): ≤ 15 min; effect with short treatment (HaCaT cells; HaCaT cells, <24 h with 20 μM): no effect observed; cytotoxic or cytostatic effect (HaCaT cells; selected cell lines): exhibited a cytotoxic or cytostatic effect on selected cell lines; cell killing (MRC5 cells [3]): they die; DNA profile (MRC5 cells [4]): shift in the DNA profile from G0/1 to sub G0/1; cell survival [5]: rapid cell death; binding of eIF4E in cell lysates [6]: bound eIF4E in cell lysates; effect of limited serum treatment on sensitivity to the peptide (MRC5 cells [7]; FIG. 9): Resistance; cell death (possibly by apoptosis) (MRC5 cells [7]; serum starved cell lines, FIG. 8): caused rapid cell death; incorporation of 35S-Met (translation) (MRC5 cells [8]): do not incorporate 35S-Met; cells fluoresced positive (TUNEL) (MRC5 cells [9]): 80%; cell death / cell viability (MRC5 cells [10]): rapid, dose-dependent, cell death
